Test results as given in the NIST ThermoML archive (doi:10.1021/acs.jced.5b00934).

Conditions: Liquid, Vibrating tube method

CCC(C)O (centres undefined) [butan-2-ol]
Conditions	mass density [kg/m3]
323.15 K, 57941 kPa	822.2
323.15 K, 65042 kPa	826.2
323.16 K, 83 kPa	780.1
323.16 K, 310 kPa	780.3
323.16 K, 904 kPa	780.9
323.16 K, 2023 kPa	781.9
323.16 K, 2969 kPa	782.8
323.16 K, 22069 kPa	798.7
323.16 K, 30034 kPa	804.5
323.16 K, 32030 kPa	805.9
323.16 K, 33179 kPa	806.7
323.16 K, 34081 kPa	807.3
323.16 K, 35135 kPa	808
323.16 K, 44962 kPa	814.4
323.16 K, 48021 kPa	816.3
323.16 K, 55018 kPa	820.5
323.16 K, 60048 kPa	823.4
323.16 K, 62109 kPa	824.6
323.16 K, 66222 kPa	826.9
328.15 K, 97 kPa	775.5
328.15 K, 549 kPa	775.9
328.15 K, 2980 kPa	778.3
328.15 K, 6989 kPa	782.1
328.15 K, 9026 kPa	784
328.15 K, 10174 kPa	785
328.15 K, 15005 kPa	789.1
328.15 K, 17974 kPa	791.5
328.15 K, 22112 kPa	794.8
328.15 K, 28057 kPa	799.3
328.15 K, 30020 kPa	800.7
328.15 K, 32096 kPa	802.2
328.15 K, 33090 kPa	802.9
328.15 K, 34106 kPa	803.6
328.15 K, 38003 kPa	806.3
328.15 K, 40189 kPa	807.7
328.15 K, 42227 kPa	809.1
328.16 K, 325 kPa	775.7
328.16 K, 909 kPa	776.3
328.16 K, 1025 kPa	776.4
328.16 K, 2032 kPa	777.5
328.16 K, 4986 kPa	780.3
328.16 K, 12064 kPa	786.6
328.16 K, 20081 kPa	793.3
328.16 K, 25008 kPa	797.1
328.16 K, 33187 kPa	802.9
328.16 K, 35148 kPa	804.3
328.16 K, 45203 kPa	811.1
328.16 K, 48119 kPa	812.8
328.16 K, 50027 kPa	814
328.16 K, 52217 kPa	815.4
328.16 K, 55140 kPa	817.1
328.16 K, 58016 kPa	818.7
328.16 K, 59968 kPa	819.8
328.16 K, 61968 kPa	820.9
328.16 K, 65013 kPa	822.7
328.16 K, 66143 kPa	823.3
333.15 K, 100 kPa	770.5
333.15 K, 350 kPa	770.7
333.15 K, 494 kPa	770.9
333.15 K, 901 kPa	771.3
333.15 K, 1016 kPa	771.5
333.15 K, 2000 kPa	772.4
333.15 K, 3021 kPa	773.4
333.15 K, 5004 kPa	775.4
333.15 K, 7066 kPa	777.4
333.15 K, 8994 kPa	779.1
333.15 K, 10031 kPa	780
333.15 K, 11980 kPa	781.8
333.15 K, 15020 kPa	784.5
333.15 K, 17985 kPa	786.9
333.15 K, 22042 kPa	790.2
333.15 K, 25059 kPa	792.7
333.15 K, 28048 kPa	794.9
333.15 K, 29961 kPa	796.3
333.15 K, 32126 kPa	798
333.15 K, 32780 kPa	798.4
333.15 K, 32804 kPa	798.4
333.15 K, 33981 kPa	799.2
333.15 K, 35081 kPa	800
